Assay results taken from patent US20100173943A1, “INSECTICIDAL COMPOSITIONS WITH IMPROVED ACTION” (BAYER CROPSCIENCE AG, priority 2007, published 2010).

How the values were obtained:
[1] = tested on: green peach aphid (Myzus persicae); assay: Myzus persicae test (MYZUPE); format: in vivo; details: pepper plants sprayed, 6 days; for pest or weed control at 20 ppm: 20 ppm a.i. alone; for pest or weed control at 0.8 ppm: 0.8 ppm a.i. alone; for pest or weed control at 4 ppm: 4 ppm a.i. alone
Description: Myzus persicae Test (MYZUPE)
(§1) Solvent: 7 parts by weight of dimethylformamide
(§2) Emulsifier: 2 parts by weight of alkylaryl polyglycol ether
To prepare an appropriate active ingredient formulation, 1 part by weight of active ingredient is mixed with the given amounts of solvent and emulsifier, and the concentrate is diluted with emulsifier-containing water to the desired concentration. In the case that addition of ammonium salts, penetrants, or ammonium salts and penetrants is required, they are pippetted in each case into the finished preparation solution after dilution in a concentration of 1000 ppm each.
Pepper plants (Capsicum annuum) highly infested by the green peach aphid (Myzus persicaei) are treated by spraying with the active ingredient formulation in the desired concentration.
After the desired time, the kill rate in % is determined. 100% means that all animals have been killed; 0% means that no animals have been killed.

[2] = tested on: cotton aphid (Aphis gossypii); assay: Aphis gossypii test (APHIGO spray treatment); format: in vivo; details: cotton leaves sprayed, 6 days; for pest or weed control at 0.8 ppm: 0.8 ppm a.i. alone; for pest or weed control at 4 ppm: 4 ppm a.i. alone; for pest or weed control at 100 ppm: 100 ppm a.i. alone
Description: Aphis gossypii Test (APHIGO Spray Treatment)
as §1, §2
To prepare a ready-to-use active ingredient formulation, 1 part by weight of active ingredient is mixed with the specified amounts of solvent and emulsifier and the concentrate is diluted with emulsifier-containing water to the desired concentration. In the case that addition of ammonium salts, penetrants, or ammonium salts and penetrants is required, they are pipetted in each case into the finished preparation solution after dilution in a concentration of 1000 ppm each.
Cotton leaves (Gossypium hirsutum) highly infested by the cotton aphid (Aphis gossypii) are sprayed with an active ingredient formulation with the desired concentration.
After the desired period, the kill rate in % is determined. 100% means that all aphids have been killed; 0% means that no aphids have been killed.

[3] = 20 ppm a.i. + AMS and RME 1000 ppm each
[4] = 20 ppm a.i. + ammonium sulphate 1000 ppm
[5] = 20 ppm a.i. + rapeseed oil methyl ester 1000 ppm
[6] = Myzus persicae, 144 h, read-out: Kill in % after 6 days a.i.
[7] = 0.8 ppm a.i. + AMS and RME 1000 ppm each
[8] = 0.8 ppm a.i. + ammonium sulphate 1000 ppm
[9] = 0.8 ppm a.i. + rapeseed oil methyl ester 1000 ppm
[10] = 4 ppm a.i. + AMS and RME 1000 ppm each
[11] = 4 ppm a.i. + ammonium sulphate 1000 ppm
[12] = 4 ppm a.i. + rapeseed oil methyl ester 1000 ppm
[13] = Aphis gossypii, 144 h, read-out: Kill in % after 6 days a.i.
[14] = 100 ppm a.i. + AMS and RME 1000 ppm each
[15] = 100 ppm a.i. + ammonium sulphate 1000 ppm
[16] = 100 ppm a.i. + rapeseed oil methyl ester 1000 ppm

Row | SMILES | Kill in % after 6 days +AMS + RME [2, 7] | Kill in % after 6 days +AMS [2, 8] | Kill in % after 6 days +RME [2, 9] | Kill in % after 6 days +AMS + RME [2, 10] | Kill in % after 6 days +AMS [2, 11] | Kill in % after 6 days +RME [2, 12] | pest or weed control at 0.8 ppm [2, 13] | pest or weed control at 4 ppm [2, 13] | Kill in % after 6 days +AMS + RME [1, 7] | Kill in % after 6 days +AMS [1, 8] | Kill in % after 6 days +RME [1, 9] | pest or weed control at 0.8 ppm [1, 6] | Kill in % after 6 days +AMS + RME [1, 10] | Kill in % after 6 days +AMS [1, 11] | Kill in % after 6 days +RME [1, 12] | pest or weed control at 4 ppm [1, 6] | other results
1 | O=C1C=C(N(Cc2ccc(Cl)nc2)C2CC2)CC1 [Compound I-19, 3-{[(6-chloropyrid-3-yl)methyl](cyclopropyl)amino}cyclopent-2-en-1-one] | 50% | 0% | 40% | 80% | 40% | 85% | 0% | 15% | – | – | – | – | – | – | – | – | Kill in % after 6 days +AMS + RME [1, 3]: 100%; Kill in % after 6 days +AMS [1, 4]: 80%; Kill in % after 6 days +RME [1, 5]: 98%; pest or weed control at 20 ppm [1, 6]: 80%
2 | CCN(Cc1ccc(Cl)nc1)C1=CC(=O)CCC1 [Compound I-39, 3-{[(6-chloropyrid-3-yl)methyl](ethyl)amino}cyclohex-2-en-1-one] | – | – | – | – | – | – | – | – | – | – | – | – | – | – | – | – | Kill in % after 6 days +AMS + RME [1, 3]: 30%; Kill in % after 6 days +AMS [1, 4]: 25%; Kill in % after 6 days +RME [1, 5]: 80%; Kill in % after 6 days +AMS + RME [1, 14]: 95%; Kill in % after 6 days +AMS [1, 15]: 90%; Kill in % after 6 days +RME [1, 16]: 95%; pest or weed control at 20 ppm [1, 6]: 20%; pest or weed control at 100 ppm ([1]; Myzus persicae, 144 h, 100 ppm a.i. alone, read-out: Kill in % after 6 days a.i.): 85%; Kill in % after 6 days +AMS + RME [2, 14]: 60%; Kill in % after 6 days +AMS [2, 15]: 45%; Kill in % after 6 days +RME [2, 16]: 60%; pest or weed control at 100 ppm [2, 13]: 45%
3 | CON(Cc1ccc(Cl)nc1)C1=CC(=O)OC1 [Compound I-29, 4-{[(6-chloropyrid-3-yl)methyl](methoxy)amino}furan-2(5H)-one] | – | – | – | 75% | 65% | 50% | – | 50% | 50% | 0% | 30% | 0% | – | – | – | – | –
4 | O=C1C=C(N(Cc2cnc(Cl)c(F)c2)C2CC2)CO1 [Compound I-13, 4-{[(6-chloro-5-fluoropyrid-3-yl)methyl](cyclopropyl)amino}furan-2(5H)-one] | 20% | 5% | 5% | 75% | 65% | 75% | 0% | 80% | 90% | 5% | 35% | 5% | – | – | – | – | –
5 | CN(Cc1ccc(Cl)nc1)C1=CC(=O)CCC1 [Compound I-38, 3-{[(6-chloropyrid-3-yl)methyl](methyl)amino}cyclohex-2-en-1-one] | – | – | – | – | – | – | – | – | – | – | – | – | 70% | 5% | 65% | 5% | Kill in % after 6 days +AMS + RME [2, 14]: 55%; Kill in % after 6 days +AMS [2, 15]: 90%; Kill in % after 6 days +RME [2, 16]: 70%; pest or weed control at 100 ppm [2, 13]: 45%
6 | CCN(Cc1ccc(Cl)nc1)C1=CC(=O)OC1 [Compound I-30, 4-{[(6-chloropyrid-3-yl)methyl](ethyl)amino}furan-2(5H)-one] | – | – | – | – | – | – | – | – | 45% | 25% | 95% | 5% | – | – | – | – | Kill in % after 6 days +AMS + RME [2, 3]: 95%; Kill in % after 6 days +AMS [2, 4]: 100%; Kill in % after 6 days +RME [2, 5]: 100%; pest or weed control at 20 ppm ([2]; Aphis gossypii, 144 h, 20 ppm a.i. alone, read-out: Kill in % after 6 days a.i.): 80%
7 | CC1OC(=O)C=C1N(C)Cc1ccc(Cl)nc1 (stereo not shown) [Compound I-25, 4-{[(6-chloropyrid-3-yl)methyl](methyl)amino}-5-methylfuran-2(5H)-one] | – | – | – | 100% | 60% | 75% | – | 65% | – | – | – | – | 55% | 50% | 80% | 0% | –
8 | O=C1C=C(N(CCF)Cc2ccc(Br)nc2)CO1 [Compound I-1, 4-{[(6-bromopyrid-3-yl)methyl](2-fluoroethyl)amino}furan-2(5H)-one] | 95% | 20% | 50% | – | – | – | 25% | – | 35% | 0% | 25% | 0% | 99% | 95% | 99% | 35% | –
9 | O=C1C=C(N(Cc2cnc(Cl)c(F)c2)CC(F)F)CO1 [Compound I-17, 4-{[(6-chloro-5-fluoropyrid-3-yl)methyl](2,2-difluoroethyl)amino}furan-2(5H)-one] | 40% | 20% | 40% | – | – | – | 0% | – | 25% | 5% | 35% | 0% | 100% | 99% | 100% | 95% | –
10 | O=C1C=C(N(CCF)Cc2cnc(Cl)s2)CO1 [Compound I-4, 4-{[(2-chloro-1,3-thiazol-5-yl)methyl](2-fluoroethyl)amino}furan-2(5H)-one] | – | – | – | 85% | 20% | 65% | – | 20% | – | – | – | – | 100% | 80% | 90% | 15% | –
